IC50 data for 15 molecules are collected here from patent US9676728B2, “2-benzyl-benzimidazole complement factor B inhibitors and uses thereof” (Novartis AG, priority 2013, dated 2017).

The IC50 is the concentration that inhibits the measured activity by half.

One assay deals with human complement factor B (CVF-Bb complex) (Homo sapiens (Human), UniProt P00751). Put plainly: biochemical. Here is the method:
CVF-Bb complex prepared from purified cobra venom factor (1 μM), recombinant human complement factor B (expressed in drosophila cells and purified using standard methods) and human complement factor D (expressed in E. Coli, refolded and purified using standard methods). CVF-Bb complex at 3 nM concentration was incubated with test compound at various concentrations for 1 hour at room temperature in PBS pH 7.4 containing 10 mM MgCl2 and 0.05% (w/v) CHAPS. Human complement C3 substrate purified from plasma was added to a final concentration of 1 μM. After 1 hour incubation at room temperature, the enzyme reaction was stopped by addition of a cocktail of concentrated pan-protease inhibitors. The product of the reaction, C3a, was quantified by means of an enzyme-linked-immunosorbent assay.
`COc1cc(C)cc(C)c1C(N)(c1nc2cc(C#N)ccc2[nH]1)C(F)(F)F` (racemic) [Example 6-D, (±)-2-(1-Amino-2,2,2-trifluoro-1-(2-methoxy-4,6-dimethylphenyl)ethyl)-1H-benzo[d]imidazole-5-carbonitrile] returned an IC50 of 1.57 µM. The same measure, in the same setting: next, `COc1cc(C)cc(C)c1C(N)(c1nc2cc(C#N)ccc2[nH]1)C1CC1` (racemic) [Example 9-C, (±)-2-(Amino(cyclopropyl)(2-methoxy-4,6-dimethylphenyl)methyl)-1H-benzo[d]imidazole-5-carbonitrile]: 1.5 µM.

Molecule `COc1cc(C)cc(C)c1C(C)(N)c1nc2cc(C#N)ccc2[nH]1` (racemic) [Example 8-B, (±)-2-(1-Amino-1-(2-methoxy-4,6-dimethylphenyl)ethyl)-1H-benzo[d]imidazole-5-carbonitrile] showed an IC50 of 6.9 µM. On the same count and under the same terms, next, `CNC(c1nc2cc(C#N)ccc2[nH]1)(c1c(C)cccc1OC)C(F)(F)F` (racemic) [Example 6-C, (±)-2-(2,2,2-Trifluoro-1-(2-methoxy-6-methylphenyl)-1-(methylamino)ethyl)-1H-benzo[d]imidazole-5-carbonitrile]: 3.13 µM; `COc1cc(C)cc(C)c1C(O)c1nc2cc(C#N)ccc2[nH]1` (racemic) [Example 1-C, (±)-2-(Hydroxy(2-methoxy-4,6-dimethylphenyl)methyl)-1H-benzo[d]imidazole-5-carbonitrile]: 5.75 µM; `CNC(c1nc2cc(C#N)ccc2[nH]1)c1c(OC)cc(C)cc1OC` (racemic) [Example 12-D (A), (±)-2-((2,6-Dimethoxy-4-methylphenyl)(methylamino)methyl)-1H-benzo[d]imidazole-5-carbonitrile]: 13.9 µM. In the case of `CNC(c1nc2cc(C#N)ccc2[nH]1)(c1ccc(C)cc1OC)C(F)(F)F` (racemic) [Example 6-A, (±)-2-(2,2,2-Trifluoro-1-(2-methoxy-4-methylphenyl)-1-(methylamino)ethyl)-1H-benzo[d]imidazole-5-carbonitrile], the IC50 came out at 0.38 µM. The same measure, in the same setting: to `CNC(c1nc2cc(C#N)ccc2[nH]1)(c1c(OC)cc(C)c(Cl)c1C)C(F)(F)F` (racemic) [Example 6-B, (±)-2-(1-(3-Chloro-6-methoxy-2,4-dimethylphenyl)-2,2,2-trifluoro-1-(methylamino)ethyl)-1H-benzo[d]imidazole-5-carbonitrile] belongs 1.98 µM. As for `CNC(c1nc2cc(C#N)ccc2[nH]1)(c1c(OC)cc(C)cc1OC)C(F)(F)F` (racemic) [Example 12-D (B), (±)-2-(1-(2,6-dimethoxy-4-methylphenyl)-2,2,2-trifluoro-1-(methylamino)ethyl)-1H-benzo[d]imidazole-5-carbonitrile], the IC50 stood at 11.1 µM. Still for that read-out and setting: to `COc1cc(C)cc(C)c1C(O)(c1nc2cc(C#N)ccc2[nH]1)C(F)(F)F` (racemic) [Example 3-B, (±)-2-(2,2,2-Trifluoro-1-hydroxy-1-(2-methoxy-4,6-dimethylphenyl)ethyl)-1H-benzo[d]imidazole-5-carbonitrile] belongs 0.39 µM; to `COc1cc(C)cc(C)c1C(N)c1nc2cc(C#N)ccc2[nH]1` (racemic) [Example 7-D, (±)-2-(Amino(2-methoxy-4,6-dimethylphenyl)methyl)-1H-benzo[d]imidazole-5-carbonitrile], 8.7 µM; to `COc1cc(C)cc(C)c1C(C)(O)c1nc2cc(C#N)ccc2[nH]1` (racemic) [Example 2-C, (±)-2-(1-Hydroxy-1-(2-methoxy-4,6-dimethylphenyl)ethyl)-1H-benzo[d]imidazole-5-carbonitrile], 1.45 µM.

For the next assay, the target named is Recombinant human factor B (Homo sapiens (Human), UniProt P00751). The experiment in a line: Human Complement Factor B TR-FRET Assay (displacement of Cy5-labeled ligand).
Sequence of Recombinant human factor B (P00751 26-764): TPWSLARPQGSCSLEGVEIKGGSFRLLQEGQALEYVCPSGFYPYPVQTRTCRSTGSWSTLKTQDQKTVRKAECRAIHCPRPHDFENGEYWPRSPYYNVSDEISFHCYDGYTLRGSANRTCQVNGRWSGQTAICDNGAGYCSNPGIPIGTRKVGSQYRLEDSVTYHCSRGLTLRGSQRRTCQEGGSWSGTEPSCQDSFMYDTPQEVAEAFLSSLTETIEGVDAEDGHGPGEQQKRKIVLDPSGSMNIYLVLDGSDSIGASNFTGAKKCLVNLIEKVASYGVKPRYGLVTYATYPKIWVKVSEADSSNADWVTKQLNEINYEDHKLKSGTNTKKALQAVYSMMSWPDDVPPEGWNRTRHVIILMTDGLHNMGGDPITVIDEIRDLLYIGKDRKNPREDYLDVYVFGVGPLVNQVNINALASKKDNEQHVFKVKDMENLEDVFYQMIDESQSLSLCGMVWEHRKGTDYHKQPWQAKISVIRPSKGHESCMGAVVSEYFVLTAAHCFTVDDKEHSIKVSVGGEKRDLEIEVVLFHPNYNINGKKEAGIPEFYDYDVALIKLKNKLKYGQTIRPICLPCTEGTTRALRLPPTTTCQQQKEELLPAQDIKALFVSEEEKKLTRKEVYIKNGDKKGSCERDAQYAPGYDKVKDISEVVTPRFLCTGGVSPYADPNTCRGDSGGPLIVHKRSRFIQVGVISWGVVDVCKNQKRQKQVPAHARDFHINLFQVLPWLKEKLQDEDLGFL
For the molecule `COc1cc(C)cc(C)c1C(OCC(N)=O)(c1nc2cc(C#N)ccc2[nH]1)C(F)(F)F` (racemic) [Example 10-C, (±)-2-(1-(5-Cyano-1H-benzo[d]imidazol-2-yl)-2,2,2-trifluoro-1-(2-methoxy-4,6-dimethylphenyl)ethoxy)acetamide], the IC50 turned out to be 0.47 µM. Still for that read-out and setting: to `COc1cc(C)c(Br)c(C)c1C(O)(c1nc2cc(C#N)ccc2[nH]1)C(F)(F)F` (racemic) [Example 4, (±)-2-(1-(3-bromo-6-methoxy-2,4-dimethylphenyl)-2,2,2-trifluoro-1-hydroxyethyl)-1H-benzo[d]imidazole-5-carbonitrile] belongs 98.9 µM; to `CNC(c1nc2cc(C#N)ccc2[nH]1)(c1c(OC)cc(C)c(Br)c1C)C(F)(F)F` (racemic) [Example 6-E, (±)-2-(1-(3-Bromo-6-methoxy-2,4-dimethylphenyl)-2,2,2-trifluoro-1-(methylamino)ethyl)-1H-benzo[d]imidazole-5-carbonitrile], 7 µM.
